Experimental data published in patent publication US20240101576A1, “HETEROCYCLIC INHIBITORS OF EGFR AND/OR HER2, FOR USE IN THE TREATMENT OF CANCER” (Scorpion Therapeutics, Inc., priority 2020, published 2024).

Assays:
Assay type in all cases: cell-based
EGFR L858R (Ba/F3 cells) = target: T1, EGFR L858R (Ba/F3 cells) (Homo sapiens, UniProt P00533, L858R); assay: Inhibitor activity on EGFR-dependent cell growth (CellTiter-Glo, 72 h), Ba/F3 EGFR L858R; conditions: read-out: BaF3 L858R IC50
T1 construct: expressed in transfected cells; host or cells: Ba/F3 (murine pro-B cells), retroviral transduction, puromycin selection, IL3-independent pool
Source text: (§1) Example A. Inhibitor Activity on EGFR-Dependent Cell Growth
(§2) Cell lines are generated by transducing Ba/F3 cells with retroviruses containing vectors with EGFR WT, EGFR L858R, EGFR exon 19del, EGFR L858R/C797S, EGFR exon 20 NPG Ins D770_N771, EGFR exon 20 ASV Ins V769_D770, EGFR exon 20 SVD Ins D770_N771, or EGFR exon 20 FQEA Ins A763_V764 genes and a puromycin selection marker. Transduced cells are selected with puromycin for 7 days and are then be transferred into culture media without Interleukin 3 (IL3). EGFR WT cells are maintained with supplemental EGF. Surviving cells are confirmed to express EGFR by Western blot and maintained as a pool. The IC50 date were included in Table 6 and Table 7.
(§3) 1.1 Cells are harvested from flask into cell culture medium and the cell number counted.
(§4) 1.2 Cells are diluted with culture medium to the desired density and 40 μL of cell suspension is added into each well of 384-well cell culture plate and the seeding density is 800 (FQEA, exon 19del), 600 (WT, NPG, L858R/C797S), or 400 (ASV, SVD, L858R) cells/well.
(§5) 2 Compound Preparation and Treatment
(§6) 2.1 Test compounds are dissolved to 10 mM in a DMSO stock solution. 45 μL of stock solution is transferred to a 384 polypropylene plate (pp-plate). Perform 3-fold, 10-point dilution via transferring 15 μL compound into 30 μL DMSO using a TECAN (EVO200) liquid handler.
(§7) 2.2 Spin plates at room temperature at 1,000 RPM for 1 minute.
(§8) 2.3 Transfer 120 nL of diluted compound from compound source plate into the cell plate.
(§9) 2.4 After compound treatment for 72 hours, perform CTG detection for compound treatment plates as described in “Detection” section.
(§10) 3.1 Plates are removed from incubators and equilibrated at room temperature for 15 minutes.
(§11) 3.2 Thaw the CellTiter Glo reagents and allow to equilibrate to room temperature before the experiment.
(§12) 3.3 Add 40 μL of CellTiter-Glo reagent into each well (at 1:1 to culture medium). Then place the plates at room temperature for 30 min followed by reading on EnVision.
(§13) 4.1 Inhibition activity is calculated following the formula below:
(§14) % Inhibition=100×(LumHC−LumSample)/(LumHC−LumLC) • where HC is obtained from cells treated with 0.1% DMSO only; and LC is obtained from culture medium only.
(§15) 4.2 2. Calculate the IC50 by fitting the Curve using Xlfit (v5.3.1.3), equation 201.
(§16) Y=Bottom+(Top−Bottom)/(1+10^((Log IC50−X)*HillSlope))

[1] = target: T2, EGFR exon 20 FQEA Ins A763_V764 (Ba/F3 cells) (Homo sapiens, UniProt P00533, INS763FQEA); assay: Inhibitor activity on EGFR-dependent cell growth (CellTiter-Glo, 72 h), Ba/F3 EGFR exon 20 FQEA Ins; conditions: read-out: BaF3 FQEA IC50
T2 construct: expressed in transfected cells; host or cells: Ba/F3 (murine pro-B cells), retroviral transduction, puromycin selection, IL3-independent pool
Method in brief: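 Cell viability was measured by CellTiter-Glo after a three-day treatment. The IL3-free Ba/F3 lines carried L858R, L858R/C797S, exon 19 deletion or FQEA insertion EGFR and were seeded at 400, 600, 800 and 800 cells/well respectively.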

[2] = target: T3, EGFR exon 20 NPG Ins D770_N771 (Ba/F3 cells) (Homo sapiens, UniProt P00533, INS770NPG); assay: Inhibitor activity on EGFR-dependent cell growth (CellTiter-Glo, 72 h), Ba/F3 EGFR exon 20 NPG Ins; conditions: read-out: BaF3 NPG IC50
T3 construct: expressed in transfected cells; host or cells: Ba/F3 (murine pro-B cells), retroviral transduction, puromycin selection, IL3-independent pool
Method in brief: (§17)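 IC50s derive from a sigmoidal dose–response fit of CellTiter-Glo signal. The signal was normalised between […]-treated cells and cell-free medium. Ba/F3 mutant-EGFR cells, seeded at 400–800/well depending on the line, had 72 h of exposure to a 10-point, 3-fold compound series.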

EGFR (CUTO14 cells) = EGFR (CUTO14 cells) (Homo sapiens, UniProt P00533); assay: Inhibitor activity on EGFR phosphorylation (pEGFR AlphaLISA, 2 h), CUTO14 cells
Source text: Example B. Inhibitor Activity on EGFR phosphorylation (pEGFR)
EGFR mutant Ba/F3 cells were generated by transduction with retrovirus containing vectors expressing EGFR L858R, EGFR exon 19del, EGFR L858R/C797S, EGFR exon 20 NPG Ins D770_N771, EGFR exon 20 ASV Ins V769_D770, or EGFR exon 20 SVD Ins D770_N771 genes along with a puromycin selection marker. Transduced cells are selected with puromycin for 7 days and are then be transferred into culture media without Interleukin 3 (IL3). Surviving cells are confirmed to express EGFR by Western blot and maintained as a pool. CUTO14 cells were obtained from Dr. Robert C. Doebele at the University of Colorado. The IC50 date are included in Table 6 and Table 7.
as §3
1.2 Cells are diluted with culture medium to the desired density and 40 μL of cell suspension is added into each well of 384-well cell culture plate and the seeding density is 50K cells/well (Ba/F3) or 12.5K cells/well (CUTO14).
as §5, §6, §7
2.3 Transfer 5 nL of diluted compound from compound source plate into the cell plate.
2.4 After compound treatment for 2 hours, perform pEGFR detection by AlphaLISA for compound treatment plates as described in “Detection” section.
3 Detection by pEGFR AlphaLISA (Perkin-Elmer)
3.1 Plates are removed from incubators and equilibrated at room temperature for 10 minutes, and media was removed
3.2 10 μL of lysis buffer is added and plates shaken at 600 rpm for 1 hr.
3.3 Prepare acceptor mix just before use and dispense 5 μL of acceptor mix to all the wells. Shake 350 rpm for Ihr in the dark
3.4 Prepare donor mix under low light conditions prior to use. Dispense 5 μL of donor mix to all the wells. Mix well on the shaker, seal and wrap in aluminum foil and incubate 1.5 hrs at room temperature in the dark
3.5 Transfer 18.5 μL mixture to OptiPlate 384, and read using an Envision. The IC50 date were included in Table 6 and Table 7.

[3] = target: EGFR exon 19del (Ba/F3 cells) (Homo sapiens, UniProt P00533); assay: Inhibitor activity on EGFR-dependent cell growth (CellTiter-Glo, 72 h), Ba/F3 EGFR exon 19del; conditions: Ba/F3 EGFR exon 19del cell growth, read-out: BaF3 Del19 IC50
Source text: as §1, §2, §3, §4, §5, §6, §7, §8, §9, §10, §11, §12, §13, §14, §15, §16

EGFR WT (Ba/F3 cells) = target: T4, EGFR WT (Ba/F3 cells) (Homo sapiens, UniProt P00533); assay: Inhibitor activity on EGFR-dependent cell growth (CellTiter-Glo, 72 h), Ba/F3 EGFR WT; conditions: read-out: BaF3 WT IC50
T4 construct: expressed in transfected cells; host or cells: Ba/F3 (murine pro-B cells), retroviral transduction, puromycin selection, maintained with EGF
Method in brief: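 This growth assay used Ba/F3 cells that depend on wild-type EGFR and are kept in EGF without IL3. Compounds were made up as 10 mM DMSO stocks and diluted 3-fold over 10 points. 120 nL went onto 600 cells/well. After 72 hours, 40 μL CellTiter-Glo was added and luminescence read on EnVision after 30 min.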

[4] = target: T5, EGFR exon 20 SVD Ins D770_N771 (Ba/F3 cells) (Homo sapiens, UniProt P00533, INS770SVD); assay: Inhibitor activity on EGFR-dependent cell growth (CellTiter-Glo, 72 h), Ba/F3 EGFR exon 20 SVD Ins; conditions: read-out: BaF3 SVD IC50
T5 construct: expressed in transfected cells; host or cells: Ba/F3 (murine pro-B cells), retroviral transduction, puromycin selection, IL3-independent pool
Method in brief: as §17

[5] = target: T6, EGFR exon 20 ASV Ins V769_D770 (Ba/F3 cells) (Homo sapiens, UniProt P00533, INS769ASV); assay: Inhibitor activity on EGFR-dependent cell growth (CellTiter-Glo, 72 h), Ba/F3 EGFR exon 20 ASV Ins; conditions: read-out: BaF3 ASV IC50
T6 construct: expressed in transfected cells; host or cells: Ba/F3 (murine pro-B cells), retroviral transduction, puromycin selection, IL3-independent pool
Method in brief: as §17

Measured: IC50

T5 sequence (P00533 with tags, fused parts or gaps INS770SVD): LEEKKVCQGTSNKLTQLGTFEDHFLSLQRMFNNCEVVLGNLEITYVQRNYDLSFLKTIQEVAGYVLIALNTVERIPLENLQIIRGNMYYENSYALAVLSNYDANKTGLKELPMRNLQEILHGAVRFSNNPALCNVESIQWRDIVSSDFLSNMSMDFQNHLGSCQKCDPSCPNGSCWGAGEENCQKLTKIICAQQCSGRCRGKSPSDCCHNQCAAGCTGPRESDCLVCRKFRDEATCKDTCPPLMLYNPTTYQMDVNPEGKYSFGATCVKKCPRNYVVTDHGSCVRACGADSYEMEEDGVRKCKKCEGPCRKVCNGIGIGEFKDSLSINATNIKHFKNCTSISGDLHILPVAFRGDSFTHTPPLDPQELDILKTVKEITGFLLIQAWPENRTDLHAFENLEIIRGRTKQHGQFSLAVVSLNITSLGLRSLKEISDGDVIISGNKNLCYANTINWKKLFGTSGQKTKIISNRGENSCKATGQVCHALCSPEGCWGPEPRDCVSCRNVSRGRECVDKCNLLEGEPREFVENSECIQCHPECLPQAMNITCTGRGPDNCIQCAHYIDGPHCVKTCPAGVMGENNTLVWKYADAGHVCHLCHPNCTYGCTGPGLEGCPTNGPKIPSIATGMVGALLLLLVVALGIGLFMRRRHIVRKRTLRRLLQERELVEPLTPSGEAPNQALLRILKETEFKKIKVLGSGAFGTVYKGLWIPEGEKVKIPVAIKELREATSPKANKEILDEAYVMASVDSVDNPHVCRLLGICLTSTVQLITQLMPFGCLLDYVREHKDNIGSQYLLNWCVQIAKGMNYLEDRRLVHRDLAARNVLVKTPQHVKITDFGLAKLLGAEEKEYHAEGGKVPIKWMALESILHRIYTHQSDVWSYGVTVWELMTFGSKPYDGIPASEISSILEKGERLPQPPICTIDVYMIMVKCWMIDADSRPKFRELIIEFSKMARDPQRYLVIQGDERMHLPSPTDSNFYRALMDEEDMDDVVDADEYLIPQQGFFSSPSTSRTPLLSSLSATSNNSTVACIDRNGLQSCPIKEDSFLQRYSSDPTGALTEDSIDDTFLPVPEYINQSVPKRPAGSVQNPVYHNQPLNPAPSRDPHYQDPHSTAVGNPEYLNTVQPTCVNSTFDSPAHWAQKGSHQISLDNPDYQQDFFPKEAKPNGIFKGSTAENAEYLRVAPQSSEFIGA
T1 sequence (P00533 25-1210 L858R): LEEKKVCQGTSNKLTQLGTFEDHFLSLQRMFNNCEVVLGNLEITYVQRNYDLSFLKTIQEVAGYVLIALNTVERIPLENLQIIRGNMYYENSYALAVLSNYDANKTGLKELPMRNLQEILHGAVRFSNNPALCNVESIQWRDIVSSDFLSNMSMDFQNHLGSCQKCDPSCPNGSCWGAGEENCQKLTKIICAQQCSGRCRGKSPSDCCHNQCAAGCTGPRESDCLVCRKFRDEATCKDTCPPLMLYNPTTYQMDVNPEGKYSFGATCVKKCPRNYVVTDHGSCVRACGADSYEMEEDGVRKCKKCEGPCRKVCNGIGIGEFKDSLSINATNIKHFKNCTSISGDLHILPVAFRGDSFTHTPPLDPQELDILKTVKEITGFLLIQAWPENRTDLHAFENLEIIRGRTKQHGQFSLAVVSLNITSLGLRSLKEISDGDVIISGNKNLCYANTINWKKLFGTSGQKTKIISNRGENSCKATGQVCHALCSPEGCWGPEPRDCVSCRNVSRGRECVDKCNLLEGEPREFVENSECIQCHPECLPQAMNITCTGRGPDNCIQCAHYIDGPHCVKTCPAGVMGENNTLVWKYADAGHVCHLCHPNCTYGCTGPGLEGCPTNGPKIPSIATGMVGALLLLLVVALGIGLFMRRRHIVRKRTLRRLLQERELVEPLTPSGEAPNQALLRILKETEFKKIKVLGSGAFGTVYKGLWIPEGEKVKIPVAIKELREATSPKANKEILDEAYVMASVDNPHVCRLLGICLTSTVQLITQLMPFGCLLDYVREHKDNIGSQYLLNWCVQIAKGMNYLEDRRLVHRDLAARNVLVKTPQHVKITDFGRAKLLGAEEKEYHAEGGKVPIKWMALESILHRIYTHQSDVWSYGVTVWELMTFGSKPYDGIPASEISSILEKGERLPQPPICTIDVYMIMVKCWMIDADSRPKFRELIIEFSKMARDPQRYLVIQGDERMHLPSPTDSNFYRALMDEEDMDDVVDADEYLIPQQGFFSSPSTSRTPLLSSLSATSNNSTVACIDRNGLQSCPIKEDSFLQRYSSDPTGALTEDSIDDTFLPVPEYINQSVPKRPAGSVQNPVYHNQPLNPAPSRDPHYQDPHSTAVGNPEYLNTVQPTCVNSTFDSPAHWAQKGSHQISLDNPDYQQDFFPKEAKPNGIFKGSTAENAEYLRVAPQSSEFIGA
T3 sequence (P00533 with tags, fused parts or gaps INS770NPG): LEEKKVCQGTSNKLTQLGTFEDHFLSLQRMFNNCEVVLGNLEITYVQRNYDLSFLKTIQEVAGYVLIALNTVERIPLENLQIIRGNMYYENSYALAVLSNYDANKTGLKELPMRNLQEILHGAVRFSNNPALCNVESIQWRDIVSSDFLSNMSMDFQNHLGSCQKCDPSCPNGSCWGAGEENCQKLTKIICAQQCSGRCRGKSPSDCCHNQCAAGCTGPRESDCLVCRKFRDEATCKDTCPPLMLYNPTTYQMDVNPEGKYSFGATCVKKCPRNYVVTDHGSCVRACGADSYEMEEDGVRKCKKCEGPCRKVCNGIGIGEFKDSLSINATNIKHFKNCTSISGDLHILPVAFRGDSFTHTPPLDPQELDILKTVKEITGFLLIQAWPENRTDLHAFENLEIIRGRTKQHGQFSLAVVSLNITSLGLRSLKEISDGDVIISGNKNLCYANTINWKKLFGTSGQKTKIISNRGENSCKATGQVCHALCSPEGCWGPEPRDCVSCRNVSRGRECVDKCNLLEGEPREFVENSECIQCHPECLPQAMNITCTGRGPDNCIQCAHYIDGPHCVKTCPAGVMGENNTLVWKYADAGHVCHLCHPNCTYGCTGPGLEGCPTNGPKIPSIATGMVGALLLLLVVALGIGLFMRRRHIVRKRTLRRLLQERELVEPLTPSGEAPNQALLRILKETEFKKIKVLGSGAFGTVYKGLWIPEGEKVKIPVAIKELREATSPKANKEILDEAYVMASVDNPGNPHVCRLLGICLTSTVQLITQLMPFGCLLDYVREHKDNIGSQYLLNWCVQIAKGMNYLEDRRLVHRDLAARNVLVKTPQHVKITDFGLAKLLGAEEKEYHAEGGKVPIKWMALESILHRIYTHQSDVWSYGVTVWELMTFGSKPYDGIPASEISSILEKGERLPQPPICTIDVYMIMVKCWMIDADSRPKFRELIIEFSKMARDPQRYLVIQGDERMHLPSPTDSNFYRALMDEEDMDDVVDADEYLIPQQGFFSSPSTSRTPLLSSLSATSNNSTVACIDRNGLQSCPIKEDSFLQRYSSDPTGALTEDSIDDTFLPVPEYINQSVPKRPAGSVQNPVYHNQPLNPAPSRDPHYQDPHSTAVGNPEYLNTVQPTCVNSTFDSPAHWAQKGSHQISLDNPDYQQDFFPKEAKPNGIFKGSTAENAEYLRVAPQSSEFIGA
T4 sequence (P00533 25-1210): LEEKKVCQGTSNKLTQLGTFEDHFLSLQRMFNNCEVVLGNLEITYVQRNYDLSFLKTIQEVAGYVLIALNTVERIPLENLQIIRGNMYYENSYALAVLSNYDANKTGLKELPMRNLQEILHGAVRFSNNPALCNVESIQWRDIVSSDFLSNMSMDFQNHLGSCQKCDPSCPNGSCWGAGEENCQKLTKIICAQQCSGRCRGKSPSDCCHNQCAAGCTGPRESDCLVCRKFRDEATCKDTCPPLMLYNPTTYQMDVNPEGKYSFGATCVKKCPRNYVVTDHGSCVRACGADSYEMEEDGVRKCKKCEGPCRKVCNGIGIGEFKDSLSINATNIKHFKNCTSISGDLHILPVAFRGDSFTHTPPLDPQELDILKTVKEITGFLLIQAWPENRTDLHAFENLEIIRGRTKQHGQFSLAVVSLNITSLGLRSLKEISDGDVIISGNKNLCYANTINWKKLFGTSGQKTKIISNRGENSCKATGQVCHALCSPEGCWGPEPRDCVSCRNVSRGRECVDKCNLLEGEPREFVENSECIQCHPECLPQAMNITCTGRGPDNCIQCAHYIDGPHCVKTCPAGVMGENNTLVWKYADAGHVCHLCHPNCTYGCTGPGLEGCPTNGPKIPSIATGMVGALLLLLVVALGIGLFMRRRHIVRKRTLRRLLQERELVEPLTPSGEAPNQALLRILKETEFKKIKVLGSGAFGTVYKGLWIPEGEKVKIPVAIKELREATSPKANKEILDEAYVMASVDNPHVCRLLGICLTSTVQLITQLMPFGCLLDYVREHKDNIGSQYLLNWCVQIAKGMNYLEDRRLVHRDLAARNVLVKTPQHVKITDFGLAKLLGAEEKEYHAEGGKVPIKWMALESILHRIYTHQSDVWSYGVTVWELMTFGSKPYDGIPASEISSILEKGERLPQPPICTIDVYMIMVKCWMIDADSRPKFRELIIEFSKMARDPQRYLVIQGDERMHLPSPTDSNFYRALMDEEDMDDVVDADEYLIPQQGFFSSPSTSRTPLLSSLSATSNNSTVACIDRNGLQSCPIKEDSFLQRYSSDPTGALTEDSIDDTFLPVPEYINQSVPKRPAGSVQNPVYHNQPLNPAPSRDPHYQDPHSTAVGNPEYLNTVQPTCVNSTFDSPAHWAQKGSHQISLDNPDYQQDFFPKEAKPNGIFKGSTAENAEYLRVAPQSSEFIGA

COc1c(Cl)cccc1Nc1c(-c2ccncc2F)[nH]c2c1C(=O)NC[C@H]2C[C@@H]1COCCO1 (single isomer, unassigned) [Compound 483]
100 to 1000 nM: [1]
> 1000 nM: EGFR WT (Ba/F3 cells)
< 100 nM: EGFR L858R (Ba/F3 cells) | [2] | EGFR (CUTO14 cells) | [3]

COc1c(Cl)cccc1Nc1c(-c2ccnc(N)n2)[nH]c2c1C(=O)NC[C@@H]2C[C@H]1COCCO1 [Compound 531, (7S)-2-(2-aminopyrimidin-4-yl)-3-[(3-chloro-2-methoxyphenyl)amino]-7-[(2S)-1,4-dioxan-2-ylmethyl]-1H,5H,6H,7H-pyrrolo[3,2-c]pyridin-4-one]
100 to 1000 nM: EGFR WT (Ba/F3 cells)
< 100 nM: all other assays above

C=CC(=O)N1CCC2(CC1)CNC(=O)c1c2[nH]c(-c2ccncc2F)c1Nc1cc(F)cc(Cl)c1OC [Compound 559, 3′-[(3-chloro-5-fluoro-2-methoxyphenyl)amino]-2′-(3-fluoropyridin-4-yl)-1-(prop-2-enoyl)-5′,6′-dihydro-1′H-spiro[piperidine-4,7′-pyrrolo[3,2-c]pyridin]-4′-one]
< 100 nM: all assays above

C=CC(=O)N1CCC2(CC1)CNC(=O)c1c2[nH]c(-c2ccncn2)c1Nc1cccc(F)c1OC [Compound 611, 3′-[(3-fluoro-2-methoxyphenyl)amino]-1-(prop-2-enoyl)-2′-(pyrimidin-4-yl)-5′,6′-dihydro-1′H-spiro[piperidine-4,7′-pyrrolo[3,2-c]pyridin]-4′-one]
not listed: [1]
< 100 nM: all other assays above

C=CC(=O)N1CCC2(CC1)CNC(=O)c1c2[nH]c(-c2ccnc(C)n2)c1Nc1cccc(F)c1OC [compound 644]
< 100 nM: [4] | [5] | [2] | EGFR (CUTO14 cells) | EGFR WT (Ba/F3 cells)

COc1c(F)cccc1Nc1c(-c2ccnc(C)n2)[nH]c2c1C(=O)NCC21CCN(C(=O)/C=C/CN(C)C)CC1 [compound 649]
100 to 1000 nM: [4] | [5] | [2] | EGFR (CUTO14 cells)
> 1000 nM: EGFR WT (Ba/F3 cells)

COc1c(F)cccc1Nc1c(-c2ccncn2)[nH]c2c1C(=O)NCC21CCN(C(=O)/C=C/CN(C)C)CC1 [compound 650]
> 1000 nM: EGFR WT (Ba/F3 cells)
100 to 1000 nM: [4] | [5] | [2]
< 100 nM: EGFR (CUTO14 cells)

COc1c(Cl)cc(F)cc1Nc1c(-c2ccnc(C)n2)[nH]c2c1C(=O)NC[C@H]2C[C@@H]1COCCO1 [compound 652]
< 100 nM: EGFR (CUTO14 cells)
100 to 1000 nM: [4] | [5] | [2]
> 1000 nM: EGFR WT (Ba/F3 cells)

COc1c(Cl)cccc1Nc1c(-c2ccnc(C)n2)[nH]c2c(C[C@@H]3COCCO3)c[nH]c(=O)c12 [compound 655, 3-[(3-chloro-2-methoxyphenyl)amino]-7-[(2R)-1,4-dioxan-2-ylmethyl]-2-(2-methylpyrimidin-4-yl)-1H,5H-pyrrolo[3,2-c]pyridin-4-one]
100 to 1000 nM: EGFR WT (Ba/F3 cells)
not listed: [1]
< 100 nM: all other assays above

COc1c(Cl)cccc1Nc1c(-c2ccncn2)[nH]c2c(C[C@@H]3COCCO3)c[nH]c(=O)c12 [compound 656]
> 1000 nM: EGFR WT (Ba/F3 cells)
not listed: [1]
< 100 nM: all other assays above

COc1c(Cl)cccc1Nc1c(-c2ccncc2F)[nH]c2c1C(=O)NC[C@@H]2C[C@@H]1CN(C)CCO1 [compound 790]
< 100 nM: [4] | [5] | [2] | EGFR (CUTO14 cells)
100 to 1000 nM: EGFR WT (Ba/F3 cells)
